According to patent publication US8105833B2, “Method for forming organ” (Research Foundation Itsuu Laboratory, priority 2003, dated 2012):

Key:
[1] = system: embryoid bodies from ES cells (E14 cells or B6 cells); assay: Formation of heart (autonomically beating cardiac muscle-like cell aggregates) from embryoid bodies using RXR ligand; format: cell-based, mouse; parameters: frequency of appearance of autonomically beating cardiac muscle-like cell aggregates: dose or concentration left out as unconfirmed
Description: (§1) As ES cells, E 14 cells of the 29 mouse strain (ATCC #: CRL-1821) or B6 cells of the C57BL mouse strain (ATCC #: SCRC-1002) were used. Mouse fetal fibroblasts prepared from a mouse embryo on the 13th day were inoculated on a 0.1% gelatin-coated culture dish, and cultured in a medium containing 12% fetal bovine serum (Gibco), 100 U/ml penicillin (Sigma) and 100 μg/ml streptomycin (Sigma) for 24 hours. These cells were treated with 10 μg/ml mytomicin C (MMC, Sigma) for four hours to inhibit cell division and then washed twice with phosphate-buffered saline (PBS) to remove MMC. The ES cells were inoculated on these fibroblasts (feeder). As the medium for the ES cells, D-MEM (high glucose, Gibco) containing 15% fetal bovine serum for ES (Gibco), 2 mM L-glutamine (Gibco), MEM non-essential amino acid (Sigma), 1 mM sodium pyruvate (Gibco), 0.0007% β-mercaptoethanol (Sigma), 1000 U/ml Leukemia inhibiting factor (Chemicon), 100 U/ml penicillin (Sigma) and 100 μg/ml streptomycin (Sigma) was used, and the cells were cultured in a CO2 incubator (5% CO2, 100% humidity) at 37° C. The medium was exchanged every day.
(§2) Subculture was performed 72 hours after the inoculation of the ES cells. MMC-treated feeder cells (mouse fetus fibroblasts) were inoculated on a gelatin-coated culture dish, and after 24 hours, the ES cells completely dissociated by a treatment with 0.05% trypsin-0.02% EDTA were inoculated to allow formation of colonies (see, FIG. 1). The ES cells were cultured for three days after the inoculation to allow formation of colonies, and a colony was isolated by pipetting and then inoculated on a culture dish for bacteria with an extremely low cell attachment property. As the medium, D-MEM (high glucose) containing 15% Knockout SR (KSR, Gibco), 100 U/ml penicillin and 100 μg/ml streptomycin was used. The cells were further cultured for three days under this condition to prepare embryoid bodies (FIG. 2). […]

[2] = system: embryoid bodies from ES cells; assay: Formation of smooth muscle-like cells from embryoid bodies using RXR ligand; format: cell-based, mouse; conditions: 1×10^−5 to 2×10^−6 M PA024, then further cultured
Description: as §1
Subculture was performed 72 hours after the inoculation of the ES cells. […]

[3] = system: embryoid bodies from ES cells; assay: Formation of adipocytes from embryoid bodies using RXR ligand; format: cell-based, mouse; parameters: adipocytes formed in comparison with the control group (all-trans retinoic acid): dose or concentration left out as unconfirmed
Description: as §1, §2

[4] = system: animal cap cells (pluripotent cell aggregates) at the blastula stage; conditions: activin at a high concentration; cited from earlier work

CC1(C)CCC(C)(C)c2cc(N(CC3CC3)c3ncc(C(=O)O)cn3)ccc21 [PA024, 2-[N-cyclopropylmethyl-N-(5,6,7,8-tetrahydro-5,5,8,8-tetramethylnaphthalen-2-yl)amino]pyrimidine-5-carboxylic acid]
formation of cardiac muscle-like cell aggregates ([1]; 2×10−6 M PA024): 0.5 cell aggregate per embryoid body
frequency of appearance of autonomically beating cardiac muscle-like cell aggregates ([1]; PA024, cultured for 2 days): 0.2 cell aggregate per embryoid body
time of formation of smooth muscle-like cells [2]: one to two
time of appearance of adipocytes ([3]; 1×10^−5 to 2×10^−6 M PA024): about two
adipocyte formation in terms of the value per embryoid body ([3]; 1×10^−5 to 2×10^−6 M PA024, culture continued for 20 days): ~100%
adipocytes formed in comparison with the control group (all-trans retinoic acid) ([3]; PA024 treated group versus all-trans retinoic acid control): two or three times more

CC1=C(/C=C/C(C)=C/C=C/C(C)=C/C(=O)O)C(C)(C)CCC1 [all-trans retinoic acid]
differentiation of cardiac muscle-like cells ([1]; control group treated with 1×10^−5 M, over two weeks after the treatment): almost no differentiation

activin
formation rate of rhythmically beating heart [4]: 60%
